In patent publication US8821908B2, “Mold-resistant construction materials” (Henkel AG & Co. KGaA, priority 2004, dated 2014):

Experiments:
Format in all cases: cell-based
[1] = tested on: test fungi envisaged in DIN EN ISO 846 or Aspergillus niger (ATCC 6275) as sole test organism; assay: Fungal resistance of cured silicone joint sealant films, test along the lines of DIN EN ISO846 after QUV aging (infestation index); set-up: key to Infestation index: sum of weekly growth ratings (0 = no growth to 5 = fully overgrown)
Description: Cured silicone films (approximately 80×60×5 mm) are sprayed alternately for 15 minutes each with a spray solution (2% strength aqueous Texapon NSO solution containing 0.5% Dehydran 1513 defoamer), then irradiated with UV light for 15 minutes, in a QUV accelerated weathering instrument (e.g. QUV-spray model). Per week, the test specimens are exposed to 198 spraying units and 198 UV units. After 4 (792 shower cycles), 8 (1584 shower cycles), and 12 weeks (2376 shower cycles), test specimens are taken for microbiological examination. An unweathered sample is likewise investigated microbiologically.
The fungal resistance of cured joint-sealing compounds is assessed in a method based on DIN EN ISO846: “Determination of the action of microorganisms on plastics (ISO 846:1997 German version EN ISO 846: 1997); (amended).
Test specimens of cured joint-sealing compounds are applied planarly to an agar surface. A fungal suspension is caused to act on the test specimens and the surrounding agar surface. After incubation, an assessment is made of the growth on and around the test specimens.
Test conditions: The following important amendments and additions to the DIN EN ISO 846 are carried out: • (1) The test specimens are tested to DIN EN ISO 846 without pretreatment. Additionally, test specimens are also assessed in the test after pretreatment. This pretreatment (leaching) may take place, for example, by incubation for a number of weeks in a flow-traversed immersion bath with water or by accommodating suitable test specimens in a QUV; • (2) The fungal spore suspension is incubated under relatively harsh, realistic conditions with increased ambient air humidity (approximately 85% relative humidity) in a humid chamber; • (3) The test specimens are incubated on ‘complete nutrient medium’ (cf. DIN EN ISO 846 4.2.1.2 method B), but with ‘wort agar’; • (4) As test organisms use is made either of the test fungi envisaged in DIN EN ISO 846: • Aspergillus niger ATCC 6275 • Penicillium funiculosum ATCC 36839 • Paecilomyces variotii ATCC 18502 • Gliocladium virens ATCC 9645 • Chaetomium globosum ATCC 6205 • or, alternatively, the strain Aspergillus niger (ATCC 6275) as sole test organism.
Evaluation of the growth on the test elements: • 0=no growth visible under microscope viewing • 1=no growth visible with naked eye, but growth clearly visible under the microscope • 2=growth visible with naked eye, up to 25% of the sample surface overgrown • 3=growth visible with naked eye, up to 50% of the sample surface overgrown • 4=considerable growth, over 50% of the sample surface overgrown • 5=severe growth, entire sample surface overgrown
All in all, the specimens are incubated for 18 weeks and inoculated again after 4 and 8 weeks in each case. The individual evaluations are added over this period and reported collectively as the infestation index.
A commercially customary silicone joint sealant (e.g., Dow Corning 3390) is admixed with the actives described and stirred with a stirrer until homogeneity is achieved. Thereafter, films of the sealant are produced and tested as described above.

[2] = tested on: Aspergillus niger (DSM1988); assay: Sporulation inhibition on wort agar plates
Description: The surface of wort agar plates was contaminated with 100 μl in each case of a microbial suspension (10^3 CFU/ml) of Aspergillus niger (DSM1988). Added beforehand to the agar plates were different amounts of active (solutions in ethanol, for final concentrations see table). The plates were incubated at 25° C. for 3 days. Spore formation was assessed visually and the sporulation rate was ascertained in [%]. A growth inhibition or microbicidal effect only occurred for a concentration of 0.05% by weight OPP.

[3] = tested on: Candida albicans; assay: Hyphal formation and cell growth of Candida albicans
From the text: Fucoidin, also known under the name fucosidan or fucoidan, is a polysaccharide from brown algae (Fucus vesiculosa, bladder wrack) which consists principally of sulfated L-fucose in 1,2-α-glycosidic linkage.

[4] = Amount of active added 500 ppm in silicone joint sealant, evaluations (0-5) added over 18 weeks
[5] = Amount of active added 1000 ppm in silicone joint sealant, evaluations added over 18 weeks

CCCCCCCCn1sc(Cl)c(Cl)c1=O [DCOIT]
Infestation index [1, 4]: 77
Infestation index [1, 5]: 81
Infestation index ([1]; Amount of active added 2000 ppm in silicone joint sealant, evaluations added over 18 weeks): 78

CC(C)(C)C(O)(CCc1ccc(Cl)cc1)Cn1cncn1 (stereo not shown) [Tebuconazole, a-(2-(4-chlorophenyl)ethyl)-a-(1,1-dimethylethyl)-1H-1,2,4-triazole-1-ethanol]
Infestation index [1, 4]: 60
Infestation index [1, 5]: 57
Infestation index ([1]; Amount of active added 2500 ppm in silicone joint sealant, evaluations added over 18 weeks): 37
Infestation index ([1]; Amount of active added 5000 ppm in silicone joint sealant, evaluations added over 18 weeks): 20
Infestation index ([1]; Amount of active added 10000 ppm in silicone joint sealant, evaluations added over 18 weeks): 12
dependence of mold prevention on concentration ([1]; in sealants, not observed with fungicides typically used at present): virtually linear dependence with increasing concentration

Oc1ccccc1-c1ccccc1 [ortho-phenylphenol]
Sporulation [%] ([2]; Concentration of OPP 0.00001 %, 25° C., 3 days, assessed visually): 95%
Sporulation [%] ([2]; Concentration of OPP 0.00005 %, 25° C., 3 days): 95%
Sporulation [%] ([2]; Concentration of OPP 0.0001 %, 25° C., 3 days): 95%
Sporulation [%] ([2]; Concentration of OPP 0.0005 %, 25° C., 3 days): 50%
Sporulation [%] ([2]; Concentration of OPP 0.001 %, 25° C., 3 days): 25%
Sporulation [%] ([2]; Concentration of OPP 0.005 %, 25° C., 3 days): 0%
concentration of complete suppression of spore formation relative to growth-inhibiting concentration ([2]; without any growth inhibition activity occurring): fifty times lower
concentration at which a growth inhibition or microbicidal effect occurred ([2]; wort agar, 25° C., 3 days): 0.05 % by weight
use concentration at which spore formation was suppressed completely ([2]; wort agar, 25° C., 3 days): 0.001 % by weight

Fucoidin
cell growth [3]: unaffected
hyphal formation [3]: significantly reduced

ortho-phenylphenol-silicic ester
Sporulation [%] ([2]; Concentration of OPP-silicic ester 0.00001 %, 25° C., 3 days): 95%
Sporulation [%] ([2]; Concentration of OPP-silicic ester 0.00005 %, 25° C., 3 days): 95%
Sporulation [%] ([2]; Concentration of OPP-silicic ester 0.0001 %, 25° C., 3 days): 95%
Sporulation [%] ([2]; Concentration of OPP-silicic ester 0.0005 %, 25° C., 3 days): 50%
Sporulation [%] ([2]; Concentration of OPP-silicic ester 0.001 %, 25° C., 3 days): 25%
Sporulation [%] ([2]; Concentration of OPP-silicic ester 0.005 %, 25° C., 3 days): 0%
Sporulation [%] ([2]; Concentration of OPP-silicic ester 0.01 %, 25° C., 3 days): 0%
use concentration at which spore formation was suppressed completely ([2]; wort agar, 25° C., 3 days): 0.005 % by weight
